Reference: US20070212700A1, “Methods of using and analyzing biological sequence data” (THE BOARD OF REGENTS OF THE UNIVERSITY OF TEXAS SYSTEM, priority 2005, published 2007)

Tests used:
[1] = tested on: biotinylated oriented peptide libraries (group I PPxY, group II PPLP, group III PPR, group IV pS/pT-P); assay: Oriented peptide library binding assay (ELISA) for WW domain specificity
Description: FIGS. 25A-D: Assays for binding affinity and specificity in WW domains. FIG. 25A: five N-terminal biotinylated oriented peptide libraries were constructed to present either a proline-only control (biotin-Z-GMAxxxxPxxxxAKKK (SEQ ID NO:162)) or the four different characteristic WW domain binding motifs: group I-oriented (biotin-Z-GMAxxxPPxYxxxAKKK-C (SEQ ID NO:163)), group II-oriented (biotin-Z-GMAxxxPPLPxxxAKKK (SEQ ID NO:164)), group III-oriented (biotin-Z-GMAxxxPPRxxxAKKK (SEQ ID NO:165)), and group IV-oriented (biotin-Z-GMAxxxxpSPxxxxAKKK (SEQ ID NO:166)), where Z is 6-aminohexanoic acid, pS is phosphoserine, and x denotes all amino acids except Cys. Binding to these peptides indicte affinity for the consensus motifes listed in FIG. 25A (SEQ ID NO:167-171). […] FIG. 25C: binding specificity of artificial WW domains from the CC55 set. Binding is reported in fold above background binding in the absence of target peptides. Shown are the mean and standard deviation of at least four independent assays. FIG. 25D: the binding specificity of additional artificial and natural WW domains.
An oriented peptide library binding assay was developed for measuring WW domain specificity, and a set of natural and artificial sequences was studied. Four biotinylated degenerate peptide libraries were constructed, each oriented around one group-specific WW recognition motif, and binding was detected using an ELISA assay (see FIGS. 25A and 25B). For example, the group I oriented peptide library was biotin-Z-GMAxxxPPxYxxxAKKK (SEQ ID NO:163), where Z is 6-aminohexanoic acid and x stands for any amino acid except cysteine (theoretical degeneracy of 8.9×10^8 sequences). A fifth proline-oriented library was also made as a control for non-specific binding. Natural WW domains that folded in the work described above were subjected to this assay. […] Similarly, the assay confirms known group III (FE65) and IV (Pin1) domains.

[2] = tested on: PPxY-containing peptide; assay: Peptide binding to wild-type and mutant Nedd4.3 WW domains by isothermal titration calorimetry (double mutant cycle); conditions: Nedd4.3 WW domain
Description: FIGS. 6A-C: A spatially distributed network underlying WW specificity. FIG. 6A: two views of the Nedd4.3 WW domain (in blue CPK), with residues comprising the cluster of eight co-evolving residues as red CPK with a transparent van der Waals surface. The cluster forms a physically connected network that links binding site residues at positions 21, 23, and 28 with the opposite side residues at positions 3 and 4 through a few intervening residues at positions 6, 8, and 22. FIG. 6B: the thermodynamic mutant cycle formalism for measuring energetic coupling between a pair of mutations. The method involves measuring equilibrium dissociation constants for peptide binding for four proteins: wild-type (WT), a mutation at one site (M1), a mutation at a second site (M2), and the double mutation M1, M2. The fold effect of M1 is calculated for the wild type background (X1) or for the background of the second mutation (X2). The thermodynamic coupling parameter Ω is defined as the ratio of these two fold effects (X1/X2)— the degree to which the effect of one mutation depends on the second. FIG. 6C: double mutant cycle analysis of co-evolving positions in the N39 (Nedd4.3) WW domain. […] Peptide binding to wild-type and mutant WW domains was measured using isothermal titration calorimetery. […]

Row | fold effect of single mutation on peptide binding relative to wild-type ([2]; PPxY-containing peptide, ITC) | effect of mutation in the background of T28A ([2]; mutant cycle) | Substance | binding specificity / binding class [1]
1 |  |  | CC55-15: artificial WW domain from the CC55 set (SEQ ID NO:35) (AGLPQGWEAAFDNSGAVYYVNPNTGKTQWERPCLEN) | group III binding profile
2 |  |  | FE65: natural WW domain, known group III (SDLPAGWMRVQDTSGTYYWHIPTGTTQWEPPGR) | group III
3 | 5.15+/−0.99 fold | diminished | L3A: alanine mutant at position 3 of the Nedd4.3 WW domain (GPAPPGWEERTHTDGRVFFINHNIKKTQWEDPRM) | 
4 |  |  | Nedd4.3: natural group I WW domain, Nedd4.3 (N39) (GPLPPGWEERTHTDGRVFFINHNIKKTQWEDPRM) | specific interaction with the PPxY-containing sequences
